Like-named read-outs stand apart in the source and are kept apart here.
Experiments:
L. major [1] = system: L. major; parameters: method as in ChEMBL; settings: ref ChEMBL, cited from earlier work
L. major [2] = test: ChEMBL dataset of pIC50 values against L. major used for the RF model (Table S1); type: cell-based, Leishmania major; also: call rule not given here
[3] = ChemBL structures with pIC50 values used for Random forest model construction, L. major
[4] = Active/Inactive class assigned to the ChEMBL pIC50 value for Random forest model construction, ref ChEMBL
[5] = ChemBL structures with pIC50 values used for Random forest model construction (Table S1)
[6] = Active/Inactive class assigned to ChemBL structures for Random forest model construction (Table S1)

Row | Compound | pIC50 Value (L. major [1]; [3]) | Outcome (L. major [2]; [4]) | pIC50 Value (L. major [1]; [5]) | Outcome (L. major [2]; [6])
1 | C[C@@H]([C@H]1CC=C2[C@@H]3CCC4=C[C@@H](N(C)C)CC[C@]4(C)[C@H]3CC[C@@]21C)N(C)C [CHEMBL496488] | 5.17 | Active | – | –
2 | C[C@@H]([C@H]1CC[C@H]2[C@@H]3CC[C@H]4C(=O)C(NC=O)=CC[C@]4(C)[C@H]3CC[C@]12C)N(C)C [CHEMBL496489] | 4.65 | Inactive | – | –
3 | COc1ccc([C@@H]2COc3c(ccc4occc34)C2)c(OC)c1O [CHEMBL498724] | 4.76 | Inactive | – | –
4 | COc1ccc([C@@H]2COc3c(ccc4c3C=CC(C)(C)O4)C2)c(OC)c1O [CHEMBL498725] | 4.63 | Inactive | – | –
5 | CC(C)(O)[C@@H]1CC[C@](C)([C@H]2[C@@H](O)C[C@@]3(C)[C@@H]4C[C@H](O)[C@H]5C(C)(C)[C@@H](O[C@@H]6OC[C@@H](O)[C@H](O)[C@H]6O)CC[C@@]56C[C@@]46CC[C@]23C)O1 [CHEMBL500607] | 4.25 | Inactive | – | –
6 | C[C@@H]1C[C@@]2(O[C@H]3C[C@@]4(C)[C@@H]5C[C@H](O)[C@H]6C(C)(C)[C@@H](O[C@@H]7OC[C@@H](O)[C@@H](O)[C@H]7O)CC[C@@]67C[C@@]57CC[C@]4(C)[C@@H]13)O[C@H](O)[C@]1(C)C[C@H]21 [CHEMBL501026] | 4.19 | Inactive | – | –
7 | C/C=C/c1cc(OC)c(OC)c(O)c1OC [CHEMBL501754] | 3.41 | Inactive | – | –
8 | COc1ccc([C@@H]2COc3c(ccc(O)c3CC=C(C)C)C2)c(OC)c1O [CHEMBL501755] | 5.10 | Active | – | –
9 | CN[C@@H](C)[C@H]1CC[C@H]2[C@@H]3CC[C@H]4C[C@@H](N(C)C(=O)c5ccccc5)CC[C@]4(C)[C@H]3CC[C@]12C [CHEMBL503323] | 5.06 | Active | – | –
10 | CC(C)(O)[C@@H]1CC[C@](C)([C@@H]2[C@@H](O)C[C@@]3(C)[C@@H]4C[C@H](O)[C@H]5C(C)(C)[C@@H](O)CC[C@@]56C[C@@]46CC[C@]23C)O1 [CHEMBL504655] | 3.97 | Inactive | – | –
11 | CN[C@@H](C)[C@H]1CC[C@H]2[C@@H]3CC[C@H]4[C@@H](OC(C)=O)[C@@H](NC(=O)C=C(C)C)CC[C@]4(C)[C@H]3CC[C@]12C [CHEMBL504923] | – | – | 5.48 | Active
12 | C/C=C(\C)C(=O)N[C@H]1CC[C@]2(C)[C@H]3CC[C@]4(C)[C@@H]([C@H](C)NC)CC[C@H]4[C@@H]3CC[C@H]2[C@H]1OC(C)=O [CHEMBL504924] | – | – | 5.82 | Active
13 | CCOC(=O)C1=C(C)NC(=O)NC1c1ccccc1 (stereo not shown) [CHEMBL507603] | – | – | 5.42 | Active
14 | COc1cc(OC)c2c(C)[n+](-c3ccc4scnc4c3)c(C)cc2c1.F[B-](F)(F)F [CHEMBL515117] | 4.00 | Inactive | – | –
15 | O=C(c1ccc(Cl)cc1)N1CCN(c2nnc(-c3ccc([N+](=O)[O-])s3)s2)CC1 [CHEMBL515851] | 4.62 | Inactive | – | –
16 | O=C(c1ccc(Cl)s1)N1CCN(c2nnc(-c3ccc([N+](=O)[O-])o3)s2)CC1 [CHEMBL516307] | 4.93 | Inactive | – | –
17 | COc1cc(OC)c2c(C)[n+](-c3cccc4cc5ccccc5cc34)c(C)cc2c1.O=C([O-])C(F)(F)F [CHEMBL516450] | – | – | 5.73 | Active
18 | COc1cc(OC)c2c(C)[n+](-c3ccc(C(C)(C)C)cc3)c(C)cc2c1.F[B-](F)(F)F [CHEMBL516763] | – | – | 5.57 | Active
19 | Cc1cccc2oc(=O)c3c(c12)O[C@H](C)[C@@]3(C)CC(=O)[C@@H]1OC1(C)C [CHEMBL517042] | 4.87 | Inactive | – | –
20 | CCCc1ccc(-[n+]2c(C)cc3cc(OC)cc(OC)c3c2C)cc1.F[B-](F)(F)F [CHEMBL517690] | – | – | 5.79 | Active
21 | O=C(c1ccc(Br)s1)N1CCN(c2nnc(-c3ccc([N+](=O)[O-])s3)s2)CC1 [CHEMBL518866] | 4.61 | Inactive | – | –

Row | Compound | pIC50 Value (L. major [1]; [3]) | Outcome (L. major [2]; [4]) | pIC50 Value (L. major [1]; [5]) | Outcome (L. major [2]; [6])
22 | COc1cc(OC)c2c(C)[n+](-c3ccc(C(C)C)cc3C(C)C)c(C)cc2c1.F[B-](F)(F)F [CHEMBL519606] | – | – | 6.27 | Active
23 | C[C@H]1COC2=C1C(=O)C(=O)c1c2ccc2c1C(=O)CCC2(C)C [CHEMBL519694] | 4.59 | Inactive | – | –
24 | Cn1c([N+](=O)[O-])cnc1-c1nnc(N2CCN(C(=O)c3ccc(Br)s3)CC2)s1 [CHEMBL520309] | 4.80 | Inactive | – | –
25 | COc1cc(OC)c2c(C)[n+](-c3ccc(Br)cc3)c(C)cc2c1.F[B-](F)(F)F [CHEMBL520594] | 4.71 | Inactive | – | –
26 | COc1cc(OC)c2c(C)[n+](-c3ccc(C)cc3)c(C)cc2c1 [CHEMBL520612] | – | – | 5.58 | Active
27 | COc1cc2c(c(OC)c1)C(C)N(c1cccc3ccccc13)C(C)C2 (stereo not shown) [CHEMBL520770] | 4.18 | Inactive | – | –
28 | Cn1c([N+](=O)[O-])cnc1-c1nnc(N2CCN(C(=O)c3ccc(Cl)cc3)CC2)s1 [CHEMBL520958] | 4.37 | Inactive | – | –
29 | COc1cc(OC)c2c(C)[n+](-c3c(C)cccc3C)c(C)cc2c1.F[B-](F)(F)F [CHEMBL521247] | – | – | 5.46 | Active
30 | Cn1c([N+](=O)[O-])cnc1-c1nnc(N2CCN(C(=O)c3ccc(Cl)s3)CC2)s1 [CHEMBL521458] | 5.03 | Active | – | –
31 | C/C=C(\C)C(=O)NC1=CC[C@@]2(C)C(=CC[C@H]3[C@@H]4CC[C@H]([C@H](C)NC)[C@@]4(C)CC[C@@H]32)C1=O [CHEMBL525190] | 4.67 | Inactive | – | –
32 | CCCCOc1ccc(-c2nc3ccccc3[nH]2)cc1 [CHEMBL531335] | – | – | 5.61 | Active
33 | COc1cccc(C(=O)/C=C/c2ccc(-n3ccnc3)cc2)c1 [CHEMBL569119] | – | – | 5.49 | Active
34 | O=C(/C=C/c1ccc(-n2ccnc2)cc1)c1ccccc1Br [CHEMBL569130] | – | – | 5.61 | Active
35 | O=C(/C=C/c1ccc(-n2ccnc2)cc1)c1ccccc1Cl [CHEMBL569355] | – | – | 5.52 | Active
36 | O=C(/C=C/c1ccc(-n2ccnc2)cc1)c1ccc(Cl)cc1 [CHEMBL569356] | – | – | 5.53 | Active
37 | O=C(/C=C/c1ccc(-n2ccnc2)cc1)c1ccc(F)c(F)c1 [CHEMBL569571] | – | – | 5.54 | Active
38 | O=C(/C=C/c1ccc(-n2ccnc2)cc1)c1ccc(F)cc1 [CHEMBL570258] | – | – | 5.61 | Active
39 | O=C(/C=C/c1ccc(-n2ccnc2)cc1)c1ccc(I)cc1 [CHEMBL570445] | – | – | 5.64 | Active
40 | COc1ccc(C(=O)/C=C/c2ccc(-n3ccnc3)cc2)cc1 [CHEMBL570461] | – | – | 5.49 | Active
41 | COc1ccc(C(=O)/C=C/c2ccc(-n3ccnc3)cc2)cc1OC [CHEMBL570484] | – | – | 5.61 | Active

— PMC8196580, “Identification of Kaurane-Type Diterpenes as Inhibitors of Leishmania Pteridine Reductase I” (Molecules, 2021)
